Experimental data reported in US20210363483A1, “METHOD FOR PRODUCING CULTURED CELL, AND METHOD FOR PRODUCING THERAPEUTIC AGENT FOR SPINAL CORD INJURY DISEASE” (REGENESIS SCIENCE CO., LTD., priority 2017, published 2021).

Tested on: GDNF mRNA
Test: GDNF mRNA expression by real-time PCR in cultured human skin-derived stem cells
Type: cell-based
Procedure: To find a compound or cytokine to increase the expression of GDNF in cells, following 6 candidate materials were examined: Valproic Acid (VA), Platelet-Derived Growth Factor (PDGF), SAG (or Purmorphamine or rh-Sonic Hedgehog (PeproTech)), Bone Morphogenic Protein 4 (BMP4). These 6 materials were added to 7 wells, which had reached to confluence in Example 1, in the following combinations: (1) Control (not added) (2) VA (1 uM), (3) VA (1 uM)+PDGF (long/ml), (4) VA (1 uM)+SAG (0.3 uM), (5) PDGF (long/ml), (6) SAG (0.3 uM), (7) […] (long/ml). 72 hours after the addition, total RNA was extracted from each well by TRIzol method. Using “ReverTra Ace (trade mark) qPCR RT kit”, a cDNA synthesis kit for PCR, 0.5 ug of each total RNA was added to 10 μL of ReverTra Ace (trade mark) qPCR RT kit to synthesize respective cDNA. […]
PCR was performed by three-step method under the conditions of annealing 60° C./elongation 72° C. and the steps (1) to (2) were repeated for 40 cycles. In the last step, a Melting Curve was analyzed and it was confirmed that no primer dimer was produced. […]

CNC1CCC(N(Cc2cccc(-c3ccncc3)c2)C(=O)c2sc3ccccc3c2Cl)CC1 (centres unmarked) [SAG, N-Methyl-N′-(3-pyridinylbenzyl)-N′-(3-chlorobenzo[b]thiophene-2-carbonyl)-1,4-diaminocyclohexane]
expression of GDNF mRNA (GDNF mRNA/GAPDH mRNA) compared with control (SAG 0.3 uM, 72 hours after addition): more than 10 times

c1ccc2c(Oc3nc(Nc4ccc(N5CCOCC5)cc4)c4ncn(C5CCCCC5)c4n3)cccc2c1 [Purmorphamine, 9-Cyclohexyl-N-[4-(4-morpholinyl)phenyl]-2-(1-naphthalenyloxy)-9H-purin-6-amine]
expression of GDNF mRNA (GDNF mRNA/GAPDH mRNA) compared with control (Purmorphamine 1.5 uM used in place of SAG): ~10 times
